Measurements reported in patent publication US20250032651A1, “[177LU] LUTETIUM-PSMA I&T COMPOSITION AND DOSIMETRY, KIT, METHOD OF MAKING, AND METHOD OF USING THEREOF” (Curium US LLC, priority 2022, published 2025).

Experiment: Normal organ dosimetry Cycle 1: SPECT/CT, TIACs, OLINDA 2.2.3 absorbed radiation dose
Assay type: in vivo, human
Settings: for Absorbed Dose, min / Absorbed Dose, Mean / Absorbed Dose, max / Absorbed Dose, median: Cycle 1
Experimental: This Example presents the biodistribution, dosimetry, and pharmacokinetics (PK) results of a PK/Dosimetry sub-study performed as part of a Phase III trial. Twenty-seven (27) patients were administered a target activity of 7.4±10% GBq of ^177Lu-PSMA-I&T and underwent single photon emission computed tomography (SPECT)/computed tomography (CT) imaging at four timepoints (4 h, 24 h, 48 h, and 168 h). Image data was analysed to compute time-activity curves (TACs) and subsequently time-integrated activity coefficients (TIACs) in each organ of interest and in organs showing appreciable and meaningful ^177Lu-PSMA-I&T activity. Organ Level Internal Dose Assessment (OLINDA 2.2.3) was used to compute organ and whole body absorbed radiation doses for each patient.
All participating sites underwent a rigorous site setup process during which all dose calibrators, scanners, and gamma counters used in the sub-study were calibrated. Sites were allowed to enroll patients in the sub-study only after the completion and approval of all site setup processes by Invicro. Patients underwent SPECT/CT imaging, with anatomical coverage typically extending from the salivary glands to the pelvis, following the administration of a targeted 7.4±10% GBq of ^177Lu-PSMA-I&T at cycle 1. SPECT/CT imaging was performed at four timepoints: 4 h, 24 h, 48 h, and 168 h post-injection. Additionally, a subset of patients imaged at Cycle 1 (16 out of 27), were also imaged at Cycle 3 (Table 2).
The imaging data was analyzed using Invicro's VivoQuant software, a validated software used in a 21 CFR § 11-compliant workflow. The general quantification approach was based on the principles detailed in the Medical Internal Radiation Dose (MIRD) Pamphlet No. 16, No 23, and No 26 as appropriate.
Volume of interest (VOI) (kidneys, bladder, liver, lumbar vertebrae L2-L4, lacrimal glands, salivary glands [parotid and submandibular glands], and whole body) were delineated on each dataset by a trained image analyst. […] Organs were segmented either by drawing the entire contour of the organ, or by placing a sphere in a representative region of the organ and then multiplying by the organ's effective mass (based on patient's height and weight). Segmentation methods for each organ are specified in Table 3 and were consistently applied to each patient.
Clearance of the radiopharmaceutical was derived from a data-appropriate fit of each organ's TAC. Depending on the TAC's shape, the data was fitted with the sum of one, two, or three exponentials, or using a rise and fall model. Fitting was performed with in-house Python software. TIACs were calculated through analytical integration of the curve fit extrapolated to infinity. […] A whole-body TAC was derived from delineating the imaged body. The remainder activity was determined by subtracting the cumulative organ TIACs from the whole body TIAC.
Organ TIACs were input into OLINDA 2.2.3 for the computation of organ and whole-body absorbed doses, using International Commission on Radiological Protection (ICRP)-103 weighing factors. The ICRP-89 derived male phantom was used for dose estimation. Organs and body mass as defined by ICRP-89 were scaled based on height and mass using patient effective mass.^4 The voiding bladder model as implemented in OLINDA was used to determine bladder TIAC, assuming a voiding interval of 4 hours. The human alimentary tract model (HAT model) described in ICRP 100 and implemented in OLINDA was used to compute doses to the small intestine, right colon, left colon and rectum for patients showing clearance through the GI tract. The fraction of injected activity (fIA) cleared via the GI tract was determined by taking the peak fIA in the GI tract over all the imaging timepoints. […] The Red Marrow mass in L2-L4 was assumed to be 6.7% of the total red marrow mass.

[1] = Prostate, 16 patients imaged at cycle 1 and 3
[2] = Rectum, 16 patients imaged at cycle 1 and 3
[3] = Red Marrow, 16 patients imaged at cycle 1 and 3
[4] = Right Colon, 16 patients imaged at cycle 1 and 3
[5] = Salivary Glands, 16 patients imaged at cycle 1 and 3
[6] = Salivary Glands, n = 26, patient 12-004 excluded
[7] = Small intestine, 16 patients imaged at cycle 1 and 3
[8] = Spleen, 16 patients imaged at cycle 1 and 3
[9] = Stomach Wall, 16 patients imaged at cycle 1 and 3
[10] = Testes, 16 patients imaged at cycle 1 and 3
[11] = Thymus, 16 patients imaged at cycle 1 and 3
[12] = Thyroid, 16 patients imaged at cycle 1 and 3
[13] = Total Body, 16 patients imaged at cycle 1 and 3
[14] = Urinary Bladder wall, 16 patients imaged at cycle 1 and 3

## O=C([O-])CC[C@H](NC(=O)N[C@@H](CCCCNC(=O)CCCCCCC(=O)NCCCC[C@@H](NC(=O)[C@@H](Cc1ccccc1)NC(=O)[C@@H](Cc1ccc(O)c(I)c1)NC(=O)CC[C@H](C(=O)[O-])N1CCN(CC(=O)[O-])CCN(CC(=O)[O-])CCN(CC(=O)[O-])CC1)C(=O)[O-])C(=O)[O-])C(=O)[O-].[177Lu+3].[H+].[H+].[H+].[H+].[H+] [^177Lu-PSMA I&T, (3S,7S,26R,29R,32R,37R)-29-benzyl-32-(4-hydroxy-3-iodobenzyl)-5,13,20,28,31,34-hexaoxo-37-(4,7,10-tris(carboxymethyl)-1,4,7,10-tetraazacyclododecan-1-yl)-4,6,12,21,27,30,33-heptaazaheptatriacontane-1,3,7,26,37-pentacarboxylic acid; lutetium-177 (III)]
Pancreas, n = 26
  Absorbed Dose, min: 0.00 Gy/GBq
Pancreas, N = 16
  Absorbed Dose in Cycle 1, Mean: 0.02 Gy/GBq
  Absorbed Dose in Cycle 1, max: 0.07 Gy/GBq
  Absorbed Dose in Cycle 1, min: 0.00 Gy/GBq
[1]
  Absorbed Dose in Cycle 1, Mean: 0.02 Gy/GBq
  Absorbed Dose in Cycle 1, max: 0.07 Gy/GBq
  Absorbed Dose in Cycle 1, min: 0.01 Gy/GBq
Prostate, n = 26
  Absorbed Dose, Mean: 0.02 Gy/GBq
  Absorbed Dose, max: 0.07 Gy/GBq
  Absorbed Dose, median: 0.01 Gy/GBq
  Absorbed Dose, min: 0.01 Gy/GBq
Prostate, N = 16
  Absorbed Dose in Cycle 1, Mean: 0.02 Gy/GBq
  Absorbed Dose in Cycle 1, max: 0.07 Gy/GBq
  Absorbed Dose in Cycle 1, min: 0.01 Gy/GBq
[2]
  Absorbed Dose in Cycle 1, Mean: 0.50 Gy/GBq
  Absorbed Dose in Cycle 1, max: 1.46 Gy/GBq
  Absorbed Dose in Cycle 1, min: 0.01 Gy/GBq
Rectum, n = 26
  Absorbed Dose, Mean: 0.44 Gy/GBq
  Absorbed Dose, max: 1.46 Gy/GBq
  Absorbed Dose, median: 0.39 Gy/GBq
  Absorbed Dose, min: 0.01 Gy/GBq
Rectum, N = 16
  Absorbed Dose in Cycle 1, Mean: 0.50 Gy/GBq
  Absorbed Dose in Cycle 1, max: 1.46 Gy/GBq
  Absorbed Dose in Cycle 1, min: 0.01 Gy/GBq
[3]
  Absorbed Dose in Cycle 1, Mean: 0.05 Gy/GBq
  Absorbed Dose in Cycle 1, max: 0.28 Gy/GBq
  Absorbed Dose in Cycle 1, min: 0.00 Gy/GBq
Red Marrow, n = 26
  Absorbed Dose, Mean: 0.08 Gy/GBq
  Absorbed Dose, max: 0.49 Gy/GBq
  Absorbed Dose, median: 0.03 Gy/GBq
  Absorbed Dose, min: 0.00 Gy/GBq
Red Marrow, N = 16
  Absorbed Dose in Cycle 1, Mean: 0.05 Gy/GBq
  Absorbed Dose in Cycle 1, max: 0.28 Gy/GBq
  Absorbed Dose in Cycle 1, min: 0.00 Gy/GBq
[4]
  Absorbed Dose in Cycle 1, Mean: 0.28 Gy/GBq
  Absorbed Dose in Cycle 1, max: 0.82 Gy/GBq
  Absorbed Dose in Cycle 1, min: 0.01 Gy/GBq
Right Colon, n = 26
  Absorbed Dose, Mean: 0.25 Gy/GBq
  Absorbed Dose, max: 0.82 Gy/GBq
  Absorbed Dose, median: 0.22 Gy/GBq
  Absorbed Dose, min: 0.01 Gy/GBq
Right Colon, N = 16
  Absorbed Dose in Cycle 1, Mean: 0.28 Gy/GBq
  Absorbed Dose in Cycle 1, max: 0.82 Gy/GBq
  Absorbed Dose in Cycle 1, min: 0.01 Gy/GBq
[5]
  Absorbed Dose in Cycle 1, Mean: 0.17 Gy/GBq
  Absorbed Dose in Cycle 1, max: 0.80 Gy/GBq
  Absorbed Dose in Cycle 1, min: 0.03 Gy/GBq
[6]
  Absorbed Dose, Mean: 0.19 Gy/GBq
  Absorbed Dose, max: 0.80 Gy/GBq
  Absorbed Dose, median: 0.15 Gy/GBq
  Absorbed Dose, min: 0.03 Gy/GBq
Salivary Glands, N = 16
  Absorbed Dose in Cycle 1, Mean: 0.17 Gy/GBq
  Absorbed Dose in Cycle 1, max: 0.80 Gy/GBq
  Absorbed Dose in Cycle 1, min: 0.03 Gy/GBq
[7]
  Absorbed Dose in Cycle 1, Mean: 0.06 Gy/GBq
  Absorbed Dose in Cycle 1, max: 0.15 Gy/GBq
  Absorbed Dose in Cycle 1, min: 0.01 Gy/GBq
Small intestine, n = 26
  Absorbed Dose, Mean: 0.05 Gy/GBq
  Absorbed Dose, max: 0.15 Gy/GBq
  Absorbed Dose, median: 0.04 Gy/GBq
  Absorbed Dose, min: 0.01 Gy/GBq
Small intestine, N = 16
  Absorbed Dose in Cycle 1, Mean: 0.06 Gy/GBq
  Absorbed Dose in Cycle 1, max: 0.15 Gy/GBq
  Absorbed Dose in Cycle 1, min: 0.01 Gy/GBq
[8]
  Absorbed Dose in Cycle 1, Mean: 0.03 Gy/GBq
  Absorbed Dose in Cycle 1, max: 0.11 Gy/GBq
  Absorbed Dose in Cycle 1, min: 0.01 Gy/GBq
Spleen, n = 26
  Absorbed Dose, Mean: 0.03 Gy/GBq
  Absorbed Dose, max: 0.11 Gy/GBq
  Absorbed Dose, median: 0.02 Gy/GBq
  Absorbed Dose, min: 0.01 Gy/GBq
Spleen, N = 16
  Absorbed Dose in Cycle 1, Mean: 0.03 Gy/GBq
  Absorbed Dose in Cycle 1, max: 0.11 Gy/GBq
  Absorbed Dose in Cycle 1, min: 0.01 Gy/GBq
[9]
  Absorbed Dose in Cycle 1, Mean: 0.02 Gy/GBq
  Absorbed Dose in Cycle 1, max: 0.07 Gy/GBq
  Absorbed Dose in Cycle 1, min: 0.00 Gy/GBq
Stomach Wall, n = 26
  Absorbed Dose, Mean: 0.02 Gy/GBq
  Absorbed Dose, max: 0.07 Gy/GBq
  Absorbed Dose, median: 0.01 Gy/GBq
  Absorbed Dose, min: 0.00 Gy/GBq
Stomach Wall, N = 16
  Absorbed Dose in Cycle 1, Mean: 0.02 Gy/GBq
  Absorbed Dose in Cycle 1, max: 0.07 Gy/GBq
  Absorbed Dose in Cycle 1, min: 0.00 Gy/GBq
[10]
  Absorbed Dose in Cycle 1, Mean: 0.01 Gy/GBq
  Absorbed Dose in Cycle 1, max: 0.07 Gy/GBq
  Absorbed Dose in Cycle 1, min: 0.00 Gy/GBq
Testes, n = 26
  Absorbed Dose, Mean: 0.01 Gy/GBq
  Absorbed Dose, max: 0.07 Gy/GBq
  Absorbed Dose, median: 0.01 Gy/GBq
  Absorbed Dose, min: 0.00 Gy/GBq
Testes, N = 16
  Absorbed Dose in Cycle 1, Mean: 0.01 Gy/GBq
  Absorbed Dose in Cycle 1, max: 0.07 Gy/GBq
  Absorbed Dose in Cycle 1, min: 0.00 Gy/GBq
[11]
  Absorbed Dose in Cycle 1, Mean: 0.01 Gy/GBq
  Absorbed Dose in Cycle 1, max: 0.07 Gy/GBq
  Absorbed Dose in Cycle 1, min: 0.00 Gy/GBq
Thymus, n = 26
  Absorbed Dose, Mean: 0.01 Gy/GBq
  Absorbed Dose, max: 0.07 Gy/GBq
  Absorbed Dose, median: 0.01 Gy/GBq
  Absorbed Dose, min: 0.00 Gy/GBq
Thymus, N = 16
  Absorbed Dose in Cycle 1, Mean: 0.01 Gy/GBq
  Absorbed Dose in Cycle 1, max: 0.07 Gy/GBq
  Absorbed Dose in Cycle 1, min: 0.00 Gy/GBq
[12]
  Absorbed Dose in Cycle 1, Mean: 0.01 Gy/GBq
  Absorbed Dose in Cycle 1, max: 0.07 Gy/GBq
  Absorbed Dose in Cycle 1, min: 0.00 Gy/GBq
Thyroid, n = 26
  Absorbed Dose, Mean: 0.01 Gy/GBq
  Absorbed Dose, max: 0.07 Gy/GBq
  Absorbed Dose, median: 0.01 Gy/GBq
  Absorbed Dose, min: 0.00 Gy/GBq
Thyroid, N = 16
  Absorbed Dose in Cycle 1, Mean: 0.01 Gy/GBq
  Absorbed Dose in Cycle 1, max: 0.07 Gy/GBq
  Absorbed Dose in Cycle 1, min: 0.00 Gy/GBq
[13]
  Absorbed Dose in Cycle 1, Mean: 0.02 Gy/GBq
  Absorbed Dose in Cycle 1, max: 0.09 Gy/GBq
  Absorbed Dose in Cycle 1, min: 0.01 Gy/GBq
Total Body, n = 26
  Absorbed Dose, Mean: 0.02 Gy/GBq
  Absorbed Dose, max: 0.09 Gy/GBq
  Absorbed Dose, median: 0.02 Gy/GBq
  Absorbed Dose, min: 0.01 Gy/GBq
Total Body, N = 16
  Absorbed Dose in Cycle 1, Mean: 0.02 Gy/GBq
  Absorbed Dose in Cycle 1, max: 0.09 Gy/GBq
  Absorbed Dose in Cycle 1, min: 0.01 Gy/GBq
[14]
  Absorbed Dose in Cycle 1, Mean: 0.40 Gy/GBq
  Absorbed Dose in Cycle 1, max: 0.47 Gy/GBq
  Absorbed Dose in Cycle 1, min: 0.33 Gy/GBq
Urinary Bladder wall, n = 26
  Absorbed Dose, Mean: 0.41 Gy/GBq
  Absorbed Dose, max: 0.50 Gy/GBq
  Absorbed Dose, median: 0.41 Gy/GBq
  Absorbed Dose, min: 0.33 Gy/GBq
Urinary Bladder wall, N = 16
  Absorbed Dose in Cycle 1, Mean: 10.40 Gy/GBq
  Absorbed Dose in Cycle 1, max: 0.47 Gy/GBq
  Absorbed Dose in Cycle 1, min: 0.33 Gy/GBq
